Reference: PubChem BioAssay (NCI)
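Cells were grown in 96-well plates and exposed to each compound for 48 hours at five concentrations; endpoints were interpolated linearly between bracketing concentrations, or set to the highest concentration if not reached. TGI denotes the concentration required for complete inhibition of growth.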

Tests used:
Assay in all cases: growth of human tumour cells (NCI), 48 h
[1] = test system: LOX IMVI melanoma
[2] = test system: DU-145 prostate
[3] = test system: HCT-15 colon
[4] = test system: HS 578T breast
[5] = test system: K-562 leukemia
[6] = test system: MOLT-4 leukemia
[7] = test system: OVCAR-8 ovarian
[8] = test system: OVCAR-5 ovarian
[9] = test system: HOP-62 NSCLC
[10] = test system: CAKI-1 renal
[11] = test system: SN12C renal
[12] = test system: KM12 colon
[13] = test system: RPMI-8226 leukemia
[14] = test system: NCI-H522 lung
[15] = test system: HT29 colon
[16] = test system: SF-295 CNS
[17] = test system: NCI-H460 lung
[18] = test system: SNB-19 CNS
[19] = test system: NCI-H23 lung
[20] = test system: SF-539 CNS
[21] = test system: BT-549 breast
[22] = test system: U251 CNS
[23] = test system: IGROV1 ovarian
[24] = test system: SK-MEL-28 melanoma
[25] = test system: UACC-257 melanoma
[26] = test system: CCRF-CEM leukemia
[27] = test system: EKVX NSCLC
[28] = test system: UACC-62 melanoma
[29] = test system: T-47D breast
[30] = test system: HCT-116 colon
[31] = test system: M14 melanoma
[32] = test system: SNB-75 CNS
[33] = test system: MDA-MB-231 breast
[34] = test system: TK-10 renal
[35] = test system: SK-MEL-2 melanoma
[36] = test system: ACHN renal
[37] = test system: SR leukemia
[38] = test system: SF-268 CNS
[39] = test system: HL-60(TB) leukemia
[40] = test system: SK-OV-3 ovarian
[41] = test system: MDA-N
[42] = test system: RXF 393 renal
[43] = test system: OVCAR-4 ovarian
[44] = test system: A549 NSCLC
[45] = test system: 786-0 renal
[46] = test system: SW-620 colon
[47] = test system: HCC-2998 colon
[48] = test system: MCF7 breast
[49] = test system: PC-3 prostate
[50] = test system: NCI-H226 lung
[51] = test system: COLO 205 colon
[52] = test system: MALME-3M melanoma
[53] = test system: UO-31 renal
[54] = test system: NCI/ADR-RES ovarian
[55] = test system: SK-MEL-5 melanoma
[56] = test system: A498 renal
[57] = test system: MDA-MB-435
[58] = test system: HOP-92 NSCLC
[59] = test system: OVCAR-3 ovarian

O=C1c2ccccc2CC12CCC1(CC2)OCCO1 was tested, and the TGI [1] was greater than 100 µM, the TGI [2] was greater than 100 µM and the TGI [3] was greater than 100 µM. For the same compound, the TGI [4] was greater than 100 µM, the TGI [5] was greater than 100 µM and the TGI [6] was greater than 100 µM. It also gave a TGI [7] greater than 100 µM, a TGI [8] greater than 100 µM and a TGI [9] greater than 100 µM. It also gave a TGI [10] greater than 100 µM, a TGI [11] greater than 100 µM and a TGI [12] greater than 100 µM. The TGI [13] was greater than 100 µM, the TGI [14] was greater than 100 µM and the TGI [15] was greater than 100 µM. The TGI [16] was greater than 100 µM, the TGI [17] was greater than 100 µM and the TGI [18] was greater than 100 µM. It also gave a TGI [19] greater than 100 µM, a TGI [20] greater than 100 µM and a TGI [21] greater than 100 µM. For the same compound, the TGI [22] was greater than 100 µM, the TGI [23] was greater than 100 µM and the TGI [24] was greater than 100 µM. For the same compound, the TGI [25] was greater than 100 µM, the TGI [26] was greater than 100 µM and the TGI [27] was greater than 100 µM. For the same compound, the TGI [28] was greater than 100 µM, the TGI [29] was greater than 100 µM and the TGI [30] was greater than 100 µM. It also gave a TGI [31] greater than 100 µM, a TGI [32] greater than 100 µM and a TGI [33] greater than 100 µM. The TGI [34] was greater than 100 µM, the TGI [35] was greater than 100 µM and the TGI [36] was greater than 100 µM. It also gave a TGI [37] greater than 100 µM, a TGI [38] greater than 100 µM and a TGI [39] greater than 100 µM. The TGI [40] was greater than 100 µM, the TGI [41] was greater than 100 µM and the TGI [42] was greater than 100 µM. For the same compound, the TGI [43] was greater than 100 µM, the TGI [44] was greater than 100 µM and the TGI [45] was greater than 100 µM. The TGI [46] was greater than 100 µM, the TGI [47] was greater than 100 µM and the TGI [48] was greater than 100 µM. It also gave a TGI [49] greater than 100 µM, a TGI [50] greater than 100 µM and a TGI [51] greater than 100 µM. It also gave a TGI [52] greater than 100 µM, a TGI [53] greater than 100 µM and a TGI [54] greater than 100 µM.
In the case of c1cncc(CNCCN2CCNCC2)c1, the TGI [1] is reported as greater than 100 µM, the TGI [3] is reported as greater than 100 µM and the TGI [4] is reported as greater than 100 µM. It also gave a TGI [55] greater than 100 µM, a TGI [5] greater than 100 µM and a TGI [6] greater than 100 µM. For the same compound, the TGI [7] was greater than 100 µM, the TGI [8] was greater than 100 µM and the TGI [9] was greater than 100 µM. For the same compound, the TGI [10] was greater than 100 µM, the TGI [11] was greater than 100 µM and the TGI [12] was greater than 100 µM. For the same compound, the TGI [56] was greater than 100 µM, the TGI [13] was greater than 100 µM and the TGI [14] was greater than 100 µM. For the same compound, the TGI [15] was greater than 100 µM, the TGI [16] was greater than 100 µM and the TGI [17] was greater than 100 µM. It also gave a TGI [18] greater than 100 µM, a TGI [19] greater than 100 µM and a TGI [20] greater than 100 µM. For the same compound, the TGI [21] was greater than 100 µM, the TGI [22] was greater than 100 µM and the TGI [23] was greater than 100 µM. It also gave a TGI [24] greater than 100 µM, a TGI [25] greater than 100 µM and a TGI [57] greater than 100 µM. The TGI [27] was greater than 100 µM, the TGI [28] was greater than 100 µM and the TGI [29] was greater than 100 µM. It also gave a TGI [30] greater than 100 µM, a TGI [31] greater than 100 µM and a TGI [32] greater than 100 µM. The TGI [33] was greater than 100 µM, the TGI [34] was greater than 100 µM and the TGI [35] was greater than 100 µM. It also gave a TGI [36] greater than 100 µM, a TGI [37] greater than 100 µM and a TGI [38] greater than 100 µM. The TGI [40] was greater than 100 µM, the TGI [41] was greater than 100 µM and the TGI [42] was greater than 100 µM. For the same compound, the TGI [43] was greater than 100 µM, the TGI [44] was greater than 100 µM and the TGI [58] was greater than 100 µM. For the same compound, the TGI [45] was greater than 100 µM, the TGI [46] was greater than 100 µM and the TGI [48] was greater than 100 µM. For the same compound, the TGI [49] was greater than 100 µM, the TGI [50] was greater than 100 µM and the TGI [51] was greater than 100 µM. The TGI [52] was greater than 100 µM, the TGI [53] was greater than 100 µM and the TGI [59] was greater than 100 µM. It also gave a TGI [54] greater than 100 µM.
Cc1cc(S(=O)(=O)N/C(=C(\C#N)C(=O)c2ccccc2)[n+]2ccc(N(C)C)cc2)c([S-])cc1Cl showed a TGI [3] greater than 100 µM, a TGI [4] greater than 100 µM and a TGI [55] greater than 100 µM. The TGI [5] was greater than 100 µM, the TGI [6] was greater than 100 µM and the TGI [7] was greater than 100 µM. It also gave a TGI [8] greater than 100 µM, a TGI [9] greater than 100 µM and a TGI [10] greater than 100 µM. For the same compound, the TGI [11] was greater than 100 µM, the TGI [12] was greater than 100 µM and the TGI [56] was greater than 100 µM. The TGI [13] was greater than 100 µM, the TGI [14] was greater than 100 µM and the TGI [15] was greater than 100 µM. The TGI [16] was greater than 100 µM, the TGI [17] was greater than 100 µM and the TGI [18] was greater than 100 µM. The TGI [19] was greater than 100 µM, the TGI [20] was greater than 100 µM and the TGI [21] was greater than 100 µM. For the same compound, the TGI [22] was greater than 100 µM, the TGI [23] was greater than 100 µM and the TGI [24] was greater than 100 µM. It also gave a TGI [25] greater than 100 µM, a TGI [26] greater than 100 µM and a TGI [57] greater than 100 µM. The TGI [27] was greater than 100 µM, the TGI [28] was greater than 100 µM and the TGI [29] was greater than 100 µM. It also gave a TGI [30] greater than 100 µM, a TGI [31] greater than 100 µM and a TGI [33] greater than 100 µM. For the same compound, the TGI [34] was greater than 100 µM, the TGI [35] was greater than 100 µM and the TGI [36] was greater than 100 µM. The TGI [37] was greater than 100 µM, the TGI [38] was greater than 100 µM and the TGI [39] was greater than 100 µM. For the same compound, the TGI [40] was greater than 100 µM, the TGI [41] was greater than 100 µM and the TGI [42] was greater than 100 µM. It also gave a TGI [43] greater than 100 µM, a TGI [44] greater than 100 µM and a TGI [58] of 0.994 µM. For the same compound, the TGI [45] was greater than 100 µM, the TGI [48] was greater than 100 µM and the TGI [49] was greater than 100 µM. For the same compound, the TGI [50] was greater than 100 µM, the TGI [51] was greater than 100 µM and the TGI [52] was 94 µM. For the same compound, the TGI [53] was greater than 100 µM, the TGI [59] was greater than 100 µM and the TGI [54] was greater than 100 µM.
